We go through 23 compounds from patent US20220282217A1, “COMPOSITIONS AND METHODS FOR PREPARING T CELL COMPOSITIONS AND USES THEREOF” (priority 2019, published 2022).

Where a SMILES comes first, the peptide text is derived from it.

In one assay the target is HLA-A03.01 (Homo sapiens, UniProt P04439). Kind of assay: Class I MHC peptide binding affinity (displacement of radiolabeled reference peptide). The settings on record: allele A03.01; read-out: Observed Affinity (IC50; (nM)).
Turning to `CC(C)C[C@H](NC(=O)[C@@H](N)CCCNC(=N)N)C(=O)N[C@@H](CO)C(=O)N[C@@H](CO)C(=O)N[C@@H](CS)C(=O)N[C@H](C(=O)N1CCC[C@H]1C(=O)N[C@H](C(=O)N[C@@H](C)C(=O)O)C(C)C)C(C)C`, the IC50 was 439 nM.

`CC(C)C[C@H](NC(=O)[C@H](CCC(N)=O)NC(=O)[C@H](CC(C)C)NC(=O)[C@@H](N)Cc1c[nH]cn1)C(=O)N[C@@H](CCCCN)C(=O)N[C@@H](CO)C(=O)N[C@@H](CS)C(=O)N[C@@H](CCCNC(=N)N)C(=O)N[C@@H](CCCNC(=N)N)C(=O)N[C@@H](CCCCN)C(=O)O` (H-HLQLKSCRRK-OH; N-terminus and C-terminus assumed): the IC50 was determined as 96.9 nM.

As for `CSCC[C@H](NC(=O)[C@H](CC(C)C)NC(=O)[C@@H]1CCCN1C(=O)[C@@H](NC(=O)[C@H](CCCCN)NC(=O)[C@H](CCSC)NC(=O)[C@@H](N)CCCNC(=N)N)C(C)C)C(=O)N[C@@H](CCCCN)C(=O)O` (H-RMKVPLMK-OH; N-terminus and C-terminus assumed), the IC50 is 33 nM.

`CC(C)[C@H](NC(=O)[C@H](CCCNC(=N)N)NC(=O)[C@@H](N)CCCCN)C(=O)N[C@@H](CC(N)=O)C(=O)N[C@H](C(=O)N[C@@H](C)C(=O)N[C@@H](Cc1c[nH]c2ccccc12)C(=O)N[C@@H](CCCCN)C(=O)N[C@H](C(=O)N[C@@H](CCCCN)C(=O)O)[C@@H](C)O)[C@@H](C)O` (H-KRVNTAWKTK-OH; N-terminus and C-terminus assumed): the IC50 worked out at 332 nM.

Consider `CC(C)[C@H](NC(=O)[C@@H](N)CCCNC(=N)N)C(=O)N[C@@H](CC(N)=O)C(=O)N[C@H](C(=O)N[C@@H](C)C(=O)N[C@@H](Cc1c[nH]c2ccccc12)C(=O)N[C@@H](CCCCN)C(=O)N[C@H](C(=O)N[C@@H](CCCCN)C(=O)N[C@@H](CCCCN)C(=O)O)[C@@H](C)O)[C@@H](C)O` (H-RVNTAWKTKK-OH; N-terminus and C-terminus assumed), for which the IC50 was 2.3 nM.

Regarding `CSCC[C@H](NC(=O)[C@@H](N)Cc1ccc(O)cc1)C(=O)N[C@@H](Cc1ccccc1)C(=O)N[C@@H](CC(C)C)C(=O)N[C@@H](CCCCN)C(=O)N[C@@H](C)C(=O)N[C@@H](CCC(=O)O)C(=O)N[C@@H](CO)C(=O)N[C@@H](CCCCN)C(=O)O` (H-YMFLKAESK-OH; N-terminus and C-terminus assumed), the IC50 is 79.8 nM.

As to `CC[C@H](C)[C@H](NC(=O)[C@@H](N)CCCCN)C(=O)N[C@@H](CO)C(=O)N[C@@H](CC(N)=O)C(=O)N[C@@H](Cc1c[nH]c2ccccc12)C(=O)N[C@@H](CO)C(=O)N[C@@H](CC(C)C)C(=O)N[C@@H](CCCCN)C(=O)N[C@@H](CCCCN)C(=O)N[C@H](C(=O)O)C(C)C` (H-KISNWSLKKV-OH; N-terminus and C-terminus assumed), the IC50 came out at 115 nM.

Turning to `C[C@@H](O)[C@H](NC(=O)[C@H](CCC(=O)O)NC(=O)[C@H](CCCCN)NC(=O)[C@H](CCCCN)NC(=O)[C@H](CCCCN)NC(=O)[C@H](CO)NC(=O)[C@@H](N)CCCCN)C(=O)N[C@@H](Cc1ccccc1)C(=O)N[C@@H](CCCCN)C(=O)O` (H-KSKKKETFK-OH; N-terminus and C-terminus assumed), the IC50 turned out to be 74.3 nM.

For the compound `CC(C)C[C@H](NC(=O)[C@@H](NC(=O)[C@H](CO)NC(=O)[C@H](CO)NC(=O)[C@H](CC(C)C)NC(=O)[C@@H](N)CCCNC(=N)N)C(C)C)C(=O)N[C@@H](CCC(N)=O)C(=O)N[C@@H](CCCNC(=N)N)C(=O)N[C@@H](Cc1ccccc1)C(=O)N[C@@H](CCCNC(=N)N)C(=O)O`, the IC50 amounted to 12.5 nM.

Consider `C[C@@H](O)[C@H](NC(=O)[C@H](CCC(=O)O)NC(=O)[C@H](CCCCN)NC(=O)[C@H](CCCCN)NC(=O)[C@H](CCCCN)NC(=O)[C@H](CO)NC(=O)[C@@H](N)CCCCN)C(=O)N[C@@H](Cc1ccccc1)C(=O)N[C@@H](CCCCN)C(=O)N[C@@H](CCCCN)C(=O)O` (H-KSKKKETFKK-OH; N-terminus and C-terminus assumed), for which the IC50 was 39.6 nM.

For `CC(C)C[C@H](NC(=O)[C@@H](NC(=O)[C@@H](N)[C@@H](C)O)[C@@H](C)O)C(=O)N[C@@H](CC(N)=O)C(=O)N[C@@H](CO)C(=O)N1CCC[C@H]1C(=O)N1CCC[C@H]1C(=O)N[C@@H](CC(C)C)C(=O)N[C@@H](CCCCN)C(=O)O` (H-TTLNSPPLK-OH; N-terminus and C-terminus assumed), the IC50 is 9.8 nM.

`CC(C)C[C@H](NC(=O)[C@@H](NC(=O)[C@@H](NC(=O)[C@@H](N)CS)[C@@H](C)O)[C@@H](C)O)C(=O)N[C@@H](CC(N)=O)C(=O)N[C@@H](CO)C(=O)N1CCC[C@H]1C(=O)N1CCC[C@H]1C(=O)N[C@@H](CC(C)C)C(=O)N[C@@H](CCCCN)C(=O)O` (H-CTTLNSPPLK-OH; N-terminus and C-terminus assumed): the IC50 came out at 63.6 nM.

Consider `CC(C)C[C@H](NC(=O)[C@H](C)NC(=O)[C@@H]1CCCN1C(=O)[C@@H](NC(=O)[C@H](CCCCN)NC(=O)[C@H](CCCCN)NC(=O)[C@H](CC(C)C)NC(=O)[C@@H](N)CO)C(C)C)C(=O)N[C@@H](CCCCN)C(=O)N[C@@H](CCCCN)C(=O)O` (H-SLKKVPALKK-OH; N-terminus and C-terminus assumed), for which the IC50 is 9.6 nM.

With `CC(C)C[C@H](NC(=O)[C@@H](N)[C@@H](C)O)C(=O)N[C@@H](CC(N)=O)C(=O)N[C@@H](CO)C(=O)N1CCC[C@H]1C(=O)N1CCC[C@H]1C(=O)N[C@@H](CC(C)C)C(=O)N[C@@H](CCCCN)C(=O)N[C@@H](CCCCN)C(=O)O` (H-TLNSPPLKK-OH; N-terminus and C-terminus assumed), the IC50 was found to be 5.4 nM.

Take `CSCC[C@H](NC(=O)[C@@H](NC(=O)[C@@H](N)Cc1ccccc1)C(C)C)C(=O)N[C@@H](CO)C(=O)N[C@@H](CC(=O)O)C(=O)N[C@H](C(=O)N[C@H](C(=O)N[C@@H](Cc1ccc(O)cc1)C(=O)N[C@@H](CCCCN)C(=O)O)[C@@H](C)O)[C@@H](C)O` (H-FVMSDTTYK-OH; N-terminus and C-terminus assumed): the IC50 worked out at 66.9 nM.

On to `CC(C)C[C@H](NC(=O)[C@H](Cc1ccccc1)NC(=O)[C@H](CO)NC(=O)[C@H](CC(C)C)NC(=O)[C@H](CS)NC(=O)[C@H](CO)NC(=O)[C@H](Cc1ccccc1)NC(=O)[C@H](CC(C)C)NC(=O)[C@@H](N)CCCCN)C(=O)N[C@@H](CO)C(=O)O` (H-KLFSCLSFLS-OH; N-terminus and C-terminus assumed), for which the IC50 was 104 nM.

Turning to `CSCC[C@H](N)C(=O)N[C@@H](CC(C)C)C(=O)N[C@@H](CC(C)C)C(=O)N[C@@H](CCCNC(=N)N)C(=O)N[C@@H](CC(C)C)C(=O)N[C@@H](CC(N)=O)C(=O)N[C@@H](CC(C)C)C(=O)N[C@@H](CCCNC(=N)N)C(=O)N[C@@H](CCCCN)C(=O)O` (H-MLLRLNLRK-OH; N-terminus and C-terminus assumed), the IC50 was determined as 1.3 nM.

For the compound `CC[C@H](C)[C@H](N)C(=O)N[C@H](C(=O)N[C@H](C(=O)N[C@H](C(=O)N[C@@H](CCCCN)C(=O)N[C@@H](C)C(=O)N[C@H](C(=O)N[C@@H](CCC(=O)O)C(=O)N[C@H](C(=O)N[C@@H](CCCCN)C(=O)O)[C@@H](C)O)[C@@H](C)O)C(C)C)[C@@H](C)O)[C@@H](C)O` (H-ITTVKATETK-OH; N-terminus and C-terminus assumed), the IC50 is 1250 nM.

On to `CC(C)[C@H](NC(=O)[C@@H](N)CCCNC(=N)N)C(=O)N[C@@H](CC(N)=O)C(=O)N[C@H](C(=O)N[C@@H](C)C(=O)N[C@@H](Cc1c[nH]c2ccccc12)C(=O)N[C@@H](CCCCN)C(=O)N[C@H](C(=O)N[C@@H](CCCCN)C(=O)O)[C@@H](C)O)[C@@H](C)O` (H-RVNTAWKTK-OH; N-terminus and C-terminus assumed), for which the IC50 was 8.6 nM.

Take `CC(C)C[C@H](NC(=O)[C@H](C)NC(=O)[C@@H]1CCCN1C(=O)[C@@H](NC(=O)[C@H](CCCCN)NC(=O)[C@H](CCCCN)NC(=O)[C@H](CC(C)C)NC(=O)[C@H](CO)NC(=O)[C@@H](N)Cc1c[nH]c2ccccc12)C(C)C)C(=O)N[C@@H](CCCCN)C(=O)O` (H-WSLKKVPALK-OH; N-terminus and C-terminus assumed): the half-maximal inhibitory concentration (IC50) turned out to be 94.9 nM.

With `CC[C@H](C)[C@H](NC(=O)[C@H](Cc1c[nH]c2ccccc12)NC(=O)[C@H](CS)NC(=O)[C@H](Cc1ccccc1)NC(=O)[C@H](Cc1ccccc1)NC(=O)[C@@H](N)Cc1ccccc1)C(=O)N[C@@H](CC(C)C)C(=O)N[C@@H](CO)C(=O)N[C@@H](CS)C(=O)N[C@@H](CCCCN)C(=O)O` (H-FFFCWILSCK-OH; N-terminus and C-terminus assumed), the IC50 was found to be 597 nM.

With `CSCC[C@H](NC(=O)[C@@H](NC(=O)[C@H](Cc1ccccc1)NC(=O)[C@@H](N)CC(C)C)C(C)C)C(=O)N[C@@H](CO)C(=O)N[C@@H](CC(=O)O)C(=O)N[C@H](C(=O)N[C@H](C(=O)N[C@@H](Cc1ccc(O)cc1)C(=O)N[C@@H](CCCCN)C(=O)O)[C@@H](C)O)[C@@H](C)O` (H-LFVMSDTTYK-OH; N-terminus and C-terminus assumed), the IC50 was found to be 749 nM.

As for `CSCC[C@H](NC(=O)[C@@H](N)CC(C)C)C(=O)N[C@@H](CC(C)C)C(=O)N[C@@H](CC(C)C)C(=O)N[C@@H](CCCNC(=N)N)C(=O)N[C@@H](CC(C)C)C(=O)N[C@@H](CC(N)=O)C(=O)N[C@@H](CC(C)C)C(=O)N[C@@H](CCCNC(=N)N)C(=O)N[C@@H](CCCCN)C(=O)O` (H-LMLLRLNLRK-OH; N-terminus and C-terminus assumed), the IC50 came to 6 nM.

The target of the next assay is T1, HLA-A02.01 (Homo sapiens, UniProt P04439, D140Y/D185E/D98H/E176V/E277Q/G131W/G231S/I119V/I121R/I166T/I218V/N151K/N90K/P208A/P217A/Q86G/Q94H/R138H/R169H).
T1 construct: made in house; host or cells: E. coli
Kind of assay: Class I MHC peptide binding stability (pMHC-I dissociation, 125I-labeled light chain). The conditions noted are these: allele A02.01.
As for `CC(C)C[C@H](NC(=O)[C@@H](N)CCCNC(=N)N)C(=O)N[C@@H](CO)C(=O)N[C@@H](CO)C(=O)N[C@@H](CS)C(=O)N[C@H](C(=O)N1CCC[C@H]1C(=O)N[C@H](C(=O)N[C@@H](C)C(=O)O)C(C)C)C(C)C`, the “Stability (T1/2 (h))” value is 18.7 h.

In the next assay the target is HLA-A02.01 (Homo sapiens, UniProt P04439, D140Y/D185E/D98H/E176V/E277Q/G131W/G231S/I119V/I121R/I166T/I218V/L300P/L318F/N151K/N90K/P208A/P217A/Q86G/Q94H/R138H/R169H/T345S). Kind of assay: Class I MHC peptide binding affinity (displacement of radiolabeled reference peptide). The settings on record: allele A02.01; read-out: Observed Affinity (IC50; (nM)). An outline of the steps:
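Peptides compete against a prebound radiolabeled reference on MHCI over 2 days at several concentrations.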
For the compound `CC(C)C[C@H](NC(=O)[C@H](Cc1ccccc1)NC(=O)[C@H](CO)NC(=O)[C@H](CC(C)C)NC(=O)[C@H](CS)NC(=O)[C@H](CO)NC(=O)[C@H](Cc1ccccc1)NC(=O)[C@H](CC(C)C)NC(=O)[C@@H](N)CCCCN)C(=O)N[C@@H](CO)C(=O)O` (H-KLFSCLSFLS-OH; N-terminus and C-terminus assumed), the IC50 turned out to be 0.6 nM.

In general, IC50 refers to the concentration at which inhibition is half-maximal.
